Laboratory results taken from the NIST ThermoML archive (doi:10.1021/acs.jced.6b00354).
± gives the expanded uncertainty stated by the source.

Experiment: mn = molality of the nth substance listed, in mol/kg
Conditions: 100 kPa, Liquid, Alternating current cell with electrodes

CCn1cc[n+](C)c1.F[B-](F)(F)F [1-ethyl-3-methylimidazolium tetrafluoroborate] + CC(=O)N(C)C
electrical conductivity [S/m]
Conditions | 283.15 K | 288.15 K | 293.15 K | 298.15 K | 303.15 K | 308.15 K | 313.15 K | 318.15 K
m1 = 0.0005629 | 0.0031908 ± 1.6e-06 | 0.0034405 ± 1.7e-06 | 0.0036939 ± 1.8e-06 | 0.0039526 ± 1.9e-06 | 0.0042191 ± 2e-06 | 0.004484 ± 2.1e-06 | 0.0047434 ± 2.2e-06 | 0.0050185 ± 2.3e-06
m1 = 0.0006895 | 0.0038906 ± 2e-06 | 0.004193 ± 2.1e-06 | 0.0045017 ± 2.2e-06 | 0.0048205 ± 2.3e-06 | 0.0051443 ± 2.4e-06 | 0.0054656 ± 2.5e-06 | 0.0057804 ± 2.7e-06 | 0.0061132 ± 2.8e-06
m1 = 0.000982 | 0.0054941 ± 2.8e-06 | 0.0059172 ± 2.9e-06 | 0.0063518 ± 3.1e-06 | 0.0067988 ± 3.3e-06 | 0.0072509 ± 3.4e-06 | 0.0077078 ± 3.6e-06 | 0.0081485 ± 3.7e-06 | 0.0086157 ± 3.8e-06
m1 = 0.001939 | 0.010589 ± 6e-06 | 0.011412 ± 6e-06 | 0.012243 ± 6e-06 | 0.013099 ± 6e-06 | 0.013967 ± 7e-06 | 0.014834 ± 7e-06 | 0.015676 ± 7e-06 | 0.016565 ± 7e-06
m1 = 0.002956 | 0.015824 ± 8e-06 | 0.017057 ± 8e-06 | 0.018294 ± 9e-06 | 0.019571 ± 9e-06 | 0.020868 ± 1e-05 | 0.022135 ± 1e-05 | 0.023398 ± 1.1e-05 | 0.024707 ± 1.1e-05
m1 = 0.004046 | 0.021327 ± 1.1e-05 | 0.022927 ± 1.1e-05 | 0.024608 ± 1.2e-05 | 0.026319 ± 1.3e-05 | 0.028044 ± 1.3e-05 | 0.029762 ± 1.4e-05 | 0.031425 ± 1.4e-05 | 0.033169 ± 1.5e-05
m1 = 0.005688 | 0.029289 ± 1.5e-05 | 0.031559 ± 1.5e-05 | 0.033817 ± 1.6e-05 | 0.036147 ± 1.7e-05 | 0.038528 ± 1.8e-05 | 0.040878 ± 1.9e-05 | 0.043126 ± 1.9e-05 | 0.045508 ± 2e-05
m1 = 0.007809 | 0.039246 ± 2e-05 | 0.042233 ± 2.1e-05 | 0.045277 ± 2.2e-05 | 0.048414 ± 2.3e-05 | 0.051576 ± 2.4e-05 | 0.054665 ± 2.5e-05 | 0.057654 ± 2.6e-05 | 0.060821 ± 2.7e-05
m1 = 0.009857 | 0.048544 ± 2.4e-05 | 0.052266 ± 2.6e-05 | 0.056056 ± 2.7e-05 | 0.059913 ± 2.8e-05 | 0.063775 ± 2.9e-05 | 0.067588 ± 3.1e-05 | 0.071261 ± 3.2e-05 | 0.075126 ± 3.3e-05
m1 = 0.01192 | 0.057623 ± 2.9e-05 | 0.062014 ± 3e-05 | 0.06648 ± 3.2e-05 | 0.071 ± 3.3e-05 | 0.075636 ± 3.5e-05 | 0.08016 ± 3.6e-05 | 0.08449 ± 3.8e-05 | 0.089017 ± 3.9e-05
m1 = 0.01392 | 0.066221 ± 3.3e-05 | 0.071259 ± 3.5e-05 | 0.076376 ± 3.6e-05 | 0.081634 ± 3.8e-05 | 0.08688 ± 4e-05 | 0.09207 ± 4.1e-05 | 0.097012 ± 4.3e-05 | 0.10224 ± 5e-05
m1 = 0.01584 | 0.074143 ± 3.7e-05 | 0.079848 ± 3.9e-05 | 0.085601 ± 4.1e-05 | 0.091493 ± 4.3e-05 | 0.097323 ± 4.5e-05 | 0.10312 ± 5e-05 | 0.10873 ± 5e-05 | 0.11459 ± 5e-05

CC(=O)N(C)C [N,N-dimethylethanamide] + CCCCn1cc[n+](C)c1.F[B-](F)(F)F
electrical conductivity [S/m]
Conditions | 283.15 K | 288.15 K | 293.15 K | 298.15 K | 303.15 K | 308.15 K | 313.15 K | 318.15 K
m2 = 0.0003956 | 0.0021612 ± 1.1e-06 | 0.0023283 ± 1.2e-06 | 0.0025019 ± 1.2e-06 | 0.0026803 ± 1.3e-06 | 0.0028647 ± 1.4e-06 | 0.0030385 ± 1.4e-06 | 0.00322 ± 1.5e-06 | 0.0034051 ± 1.6e-06
m2 = 0.000671 | 0.0036275 ± 1.9e-06 | 0.0039047 ± 1.9e-06 | 0.004196 ± 2.1e-06 | 0.0044945 ± 2.2e-06 | 0.0047984 ± 2.3e-06 | 0.0050953 ± 2.4e-06 | 0.0053975 ± 2.5e-06 | 0.0057039 ± 2.6e-06
m2 = 0.0009718 | 0.0051999 ± 2.7e-06 | 0.0056027 ± 2.8e-06 | 0.0060224 ± 2.9e-06 | 0.0064451 ± 3.1e-06 | 0.0068768 ± 3.2e-06 | 0.0073024 ± 3.4e-06 | 0.0077338 ± 3.5e-06 | 0.0081707 ± 3.6e-06
m2 = 0.001959 | 0.010227 ± 5e-06 | 0.011022 ± 5e-06 | 0.011831 ± 6e-06 | 0.012666 ± 6e-06 | 0.013508 ± 6e-06 | 0.014339 ± 7e-06 | 0.015175 ± 7e-06 | 0.01603 ± 7e-06
m2 = 0.002976 | 0.01525 ± 8e-06 | 0.016416 ± 8e-06 | 0.017623 ± 9e-06 | 0.018852 ± 9e-06 | 0.020112 ± 9e-06 | 0.021302 ± 1e-05 | 0.022571 ± 1e-05 | 0.023828 ± 1.1e-05
m2 = 0.003778 | 0.019105 ± 1e-05 | 0.020563 ± 1e-05 | 0.022088 ± 1.1e-05 | 0.023628 ± 1.1e-05 | 0.025189 ± 1.2e-05 | 0.026664 ± 1.2e-05 | 0.028258 ± 1.3e-05 | 0.029817 ± 1.3e-05
m2 = 0.005993 | 0.02947 ± 1.5e-05 | 0.03171 ± 1.6e-05 | 0.034016 ± 1.6e-05 | 0.036401 ± 1.7e-05 | 0.038756 ± 1.8e-05 | 0.041015 ± 1.9e-05 | 0.043439 ± 2e-05 | 0.045784 ± 2e-05
m2 = 0.007976 | 0.03841 ± 1.9e-05 | 0.041353 ± 2e-05 | 0.044368 ± 2.1e-05 | 0.047396 ± 2.2e-05 | 0.050472 ± 2.3e-05 | 0.053564 ± 2.4e-05 | 0.056503 ± 2.5e-05 | 0.059519 ± 2.6e-05
m2 = 0.009999 | 0.047279 ± 2.4e-05 | 0.050928 ± 2.5e-05 | 0.054557 ± 2.6e-05 | 0.058325 ± 2.7e-05 | 0.062033 ± 2.9e-05 | 0.065747 ± 3e-05 | 0.069408 ± 3.1e-05 | 0.073087 ± 3.2e-05
m2 = 0.01203 | 0.055972 ± 2.8e-05 | 0.060177 ± 2.9e-05 | 0.064588 ± 3.1e-05 | 0.069017 ± 3.2e-05 | 0.073419 ± 3.4e-05 | 0.077654 ± 3.5e-05 | 0.082086 ± 3.7e-05 | 0.086346 ± 3.8e-05
m2 = 0.01408 | 0.064541 ± 3.2e-05 | 0.069536 ± 3.4e-05 | 0.074489 ± 3.6e-05 | 0.079576 ± 3.7e-05 | 0.084557 ± 3.9e-05 | 0.089517 ± 4e-05 | 0.094529 ± 4.2e-05 | 0.099432 ± 4.4e-05
m2 = 0.01598 | 0.072339 ± 3.6e-05 | 0.07784 ± 3.8e-05 | 0.083519 ± 4e-05 | 0.089184 ± 4.2e-05 | 0.094781 ± 4.3e-05 | 0.10031 ± 5e-05 | 0.10588 ± 5e-05 | 0.1113 ± 5e-05
